Assay results from ChEMBL document CHEMBL3217493, “Approaches to discover non-ATP site kinase inhibitors” (Medchemcomm, 2013).
pKd: −log10 of the molar value.

Target: Mitogen-activated protein kinase 1 (Homo sapiens, UniProt P28482)
Experiment: Binding affinity to ERK2 (unknown origin)

Chain of Mitogen-activated protein kinase 1 (P28482 whole entry): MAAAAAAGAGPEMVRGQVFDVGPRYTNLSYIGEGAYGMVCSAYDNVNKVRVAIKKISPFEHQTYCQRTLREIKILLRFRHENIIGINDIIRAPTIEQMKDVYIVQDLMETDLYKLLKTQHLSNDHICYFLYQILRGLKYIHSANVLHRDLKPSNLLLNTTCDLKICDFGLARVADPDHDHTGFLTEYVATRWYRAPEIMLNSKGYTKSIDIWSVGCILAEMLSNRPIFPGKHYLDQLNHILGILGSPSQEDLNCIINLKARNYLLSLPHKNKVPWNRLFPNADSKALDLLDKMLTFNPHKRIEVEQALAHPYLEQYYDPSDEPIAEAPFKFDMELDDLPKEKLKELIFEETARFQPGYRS

- pKd: 5.30
SMILES: COc1ccc(/C=C2\SC(=O)N(CCN)C2=O)cc1
